{"source": "ChEMBL document CHEMBL1821715", "about": "“Synthesis, characterization and pharmacological activity of 4-{[1-substituted aminomethyl-4-arylideneamino-5-sulfanyl-4,5-dihydro-1H-1,2,4-triazol-3-yl]methyl}-2H-1,4-benzothiazin-3(4H)-ones” (2011)", "type_in_all_cases": "functional", "key": {"[1]": {"system": "Rattus norvegicus", "test": "Antiinflammatory activity in Wistar albino rat assessed as reduction of carrageenan-induced paw volume at 20 mg/kg, po administered 30 mins before carrageenan challenge measured after 0.5 hr relative to control", "set-up": "scale not given: the % may be the effect or the level left"}, "[2]": {"system": "Rattus norvegicus", "test": "Analgesic activity in Wistar albino rat assessed as reaction time required for tail flicking at 20 mg/kg after 60 mins by tail-flick method relative to control"}, "[3]": {"system": "Rattus norvegicus", "test": "Antiinflammatory activity in Wistar albino rat assessed as reduction of carrageenan-induced paw volume at 20 mg/kg, po administered 30 mins before carrageenan challenge measured after 1 hr relative to control", "set-up": "scale not given: the % may be the effect or the level left"}, "[4]": {"system": "Rattus norvegicus", "test": "Analgesic activity in Wistar albino rat assessed as reaction time required for tail flicking at 20 mg/kg after 30 mins by tail-flick method relative to control"}, "[5]": {"system": "Rattus norvegicus", "test": "Analgesic activity in Wistar albino rat assessed as reaction time required for tail flicking at 20 mg/kg after 90 mins by tail-flick method relative to control"}, "[6]": {"system": "Rattus norvegicus", "test": "Antiinflammatory activity in Wistar albino rat assessed as reduction of carrageenan-induced paw volume at 20 mg/kg, po administered 30 mins before carrageenan challenge measured after 2 hrs relative to control", "set-up": "scale not given: the % may be the effect or the level left"}}, "data": [{"compound": "O=C1CSc2ccccc2N1Cc1nn(CN2CCOCC2)c(=S)n1/N=C/c1ccc(O)cc1", "values": [{"measurement": "Activity", "setting": "[1]", "value": 53.38, "unit": "%"}, {"measurement": "Time", "setting": "[2]", "value": 5, "unit": "s"}, {"measurement": "Activity", "setting": "[3]", "value": 45.1, "unit": "%"}, {"measurement": "Time", "setting": "[4]", "value": 4.3, "unit": "s"}, {"measurement": "Time", "setting": "[5]", "value": 6, "unit": "s"}, {"measurement": "Activity", "setting": "[6]", "value": 38.97, "unit": "%"}]}, {"compound": "CN1CCN(Cn2nc(CN3C(=O)CSc4ccccc43)n(/N=C/c3ccc(Cl)cc3)c2=S)CC1", "values": [{"measurement": "Activity", "setting": "[1]", "value": 38.51, "unit": "%"}, {"measurement": "Time", "setting": "[2]", "value": 5.375, "unit": "s"}, {"measurement": "Activity", "setting": "[3]", "value": 44.12, "unit": "%"}, {"measurement": "Time", "setting": "[4]", "value": 4.575, "unit": "s"}, {"measurement": "Time", "setting": "[5]", "value": 5, "unit": "s"}, {"measurement": "Activity", "setting": "[6]", "value": 42.86, "unit": "%"}]}, {"compound": "CN1CCN(Cn2nc(CN3C(=O)CSc4ccccc43)n(/N=C/c3ccccc3)c2=S)CC1", "values": [{"measurement": "Activity", "setting": "[1]", "value": 8.1, "unit": "%"}, {"measurement": "Time", "setting": "[2]", "value": 4.3, "unit": "s"}, {"measurement": "Activity", "setting": "[3]", "value": 9.8, "unit": "%"}, {"measurement": "Time", "setting": "[4]", "value": 3.5, "unit": "s"}, {"measurement": "Time", "setting": "[5]", "value": 4.225, "unit": "s"}, {"measurement": "Activity", "setting": "[6]", "value": 10.39, "unit": "%"}]}, {"compound": "O=C1CSc2ccccc2N1Cc1nn(CN2CCOCC2)c(=S)n1/N=C/c1ccc(Cl)cc1", "values": [{"measurement": "Activity", "setting": "[1]", "value": 28.04, "unit": "%"}, {"measurement": "Time", "setting": "[2]", "value": 4.875, "unit": "s"}, {"measurement": "Activity", "setting": "[3]", "value": 32.35, "unit": "%"}, {"measurement": "Time", "setting": "[4]", "value": 4.8, "unit": "s"}, {"measurement": "Time", "setting": "[5]", "value": 4.075, "unit": "s"}, {"measurement": "Activity", "setting": "[6]", "value": 29.55, "unit": "%"}]}, {"compound": "CC(C)=CCN1CC[C@]2(C)c3cc(O)ccc3C[C@H]1[C@H]2C", "note": "[(+)-PENTAZOCINE]", "values": [{"measurement": "Time", "setting": "[2]", "value": 7.175, "unit": "s"}, {"measurement": "Time", "setting": "[4]", "value": 6.4, "unit": "s"}, {"measurement": "Time", "setting": "[5]", "value": 7.45, "unit": "s"}]}, {"compound": "COc1ccc2c(c1)c(CC(=O)O)c(C)n2C(=O)c1ccc(Cl)cc1", "note": "[INDOMETHACIN]", "values": [{"measurement": "Activity", "setting": "[1]", "value": 66.89, "unit": "%"}, {"measurement": "Activity", "setting": "[3]", "value": 70.26, "unit": "%"}, {"measurement": "Activity", "setting": "[6]", "value": 69.81, "unit": "%"}]}, {"compound": "O=C1CSc2ccccc2N1Cc1nn(CN2CCOCC2)c(=S)n1/N=C/c1ccc([N+](=O)[O-])cc1", "values": [{"measurement": "Activity", "setting": "[1]", "value": 37.84, "unit": "%"}, {"measurement": "Time", "setting": "[2]", "value": 6.05, "unit": "s"}, {"measurement": "Activity", "setting": "[3]", "value": 42.16, "unit": "%"}, {"measurement": "Time", "setting": "[4]", "value": 5.425, "unit": "s"}, {"measurement": "Time", "setting": "[5]", "value": 6.025, "unit": "s"}, {"measurement": "Activity", "setting": "[6]", "value": 31.82, "unit": "%"}]}, {"compound": "O=C1CSc2ccccc2N1Cc1nn(CN2CCCCC2)c(=S)n1/N=C/c1ccc([N+](=O)[O-])cc1", "values": [{"measurement": "Activity", "setting": "[1]", "value": 52.71, "unit": "%"}, {"measurement": "Time", "setting": "[2]", "value": 5.3, "unit": "s"}, {"measurement": "Activity", "setting": "[3]", "value": 55.56, "unit": "%"}, {"measurement": "Time", "setting": "[4]", "value": 5.1, "unit": "s"}, {"measurement": "Time", "setting": "[5]", "value": 4.875, "unit": "s"}, {"measurement": "Activity", "setting": "[6]", "value": 58.77, "unit": "%"}]}, {"compound": "O=C1CSc2ccccc2N1Cc1nn(CN2CCOCC2)c(=S)n1/N=C/c1ccccc1", "values": [{"measurement": "Activity", "setting": "[1]", "value": 5.4, "unit": "%"}, {"measurement": "Time", "setting": "[2]", "value": 3.375, "unit": "s"}, {"measurement": "Activity", "setting": "[3]", "value": 10.13, "unit": "%"}, {"measurement": "Time", "setting": "[4]", "value": 3.175, "unit": "s"}, {"measurement": "Time", "setting": "[5]", "value": 3.4, "unit": "s"}, {"measurement": "Activity", "setting": "[6]", "value": 10.39, "unit": "%"}]}, {"compound": "O=C(O)CN1C(=O)CSc2ccccc21", "values": [{"measurement": "Activity", "setting": "[1]", "value": 38.51, "unit": "%"}, {"measurement": "Time", "setting": "[2]", "value": 6.5, "unit": "s"}, {"measurement": "Activity", "setting": "[3]", "value": 30.07, "unit": "%"}, {"measurement": "Time", "setting": "[4]", "value": 5.775, "unit": "s"}, {"measurement": "Time", "setting": "[5]", "value": 6.875, "unit": "s"}, {"measurement": "Activity", "setting": "[6]", "value": 27.93, "unit": "%"}]}, {"compound": "O=C1CSc2ccccc2N1Cc1nn(CN2CCCCC2)c(=S)n1/N=C/c1ccccc1", "values": [{"measurement": "Activity", "setting": "[1]", "value": 40.21, "unit": "%"}, {"measurement": "Time", "setting": "[2]", "value": 5.3, "unit": "s"}, {"measurement": "Activity", "setting": "[3]", "value": 41.18, "unit": "%"}, {"measurement": "Time", "setting": "[4]", "value": 3.925, "unit": "s"}, {"measurement": "Time", "setting": "[5]", "value": 5.5, "unit": "s"}, {"measurement": "Activity", "setting": "[6]", "value": 41.23, "unit": "%"}]}, {"compound": "CN1CCN(Cn2nc(CN3C(=O)CSc4ccccc43)n(/N=C/c3ccc([N+](=O)[O-])cc3)c2=S)CC1", "values": [{"measurement": "Activity", "setting": "[1]", "value": 33.11, "unit": "%"}, {"measurement": "Time", "setting": "[2]", "value": 5.975, "unit": "s"}, {"measurement": "Activity", "setting": "[3]", "value": 40.53, "unit": "%"}, {"measurement": "Time", "setting": "[4]", "value": 5.475, "unit": "s"}, {"measurement": "Time", "setting": "[5]", "value": 6.05, "unit": "s"}, {"measurement": "Activity", "setting": "[6]", "value": 37.34, "unit": "%"}]}]}
